The test has as its system Botrytis cinerea. The test can be described thus: Treatment of sweet peppers (Example 10). Type of test: in vivo. To be noted: 20° C., 150 ppm spiroxamine or both. The protocol:
Ten fresh, organic sweet peppers were used per treatment. Each sweet pepper was soaked in a 180 ppm hypochlorite solution for 10 minutes, then rinsed thoroughly with fresh tap water and dried. The peel of each disinfected sweet pepper was wounded once using a cork borer according to the method described by de Lapeyre de Bellaire and Dubois (1987). Subsequently, each wound was inoculated with 10 μl of a Botrytis cinerea suspension containing 1×10^5 of spores/ml. After incubation for 3 hours at 20° C., each wound and the skin area of 0.5 cm around the wound was treated with in total 75 μl of a freshly prepared aqueous antifungal composition comprising either 200 ppm natamycin (DSM Food Specialties, Delft, The Netherlands), 150 ppm spiroxamine or both. […]
The treated sweet peppers were incubated in a closed box in the dark at 20° C. and assessed on mould growth during incubation. The antifungal activity (in %) of the individual and combined active ingredients was determined by calculating the reduction in mould growth observed on the sweet peppers treated with the antifungal composition in comparison to the mould growth on the sweet peppers treated with the control composition according to the Colby method (Colby, 1967) as described in Example 5.

Take `CCCN(CC)CC1COC2(CCC(C(C)(C)C)CC2)O1` (centres unmarked) [Spiroxamine, spiroxamine]: the “Observed antifungal activity O (%)” value was 0% (day 12, 200 ppm natamycin) and 0% (day 13, 200 ppm natamycin).

The values above are taken from patent US20150133297A1, “NEW ANTIFUNGAL COMPOSITIONS” (DSM IP ASSETS B.V., priority 2012, published 2015).
